Experiments:
rat [1] = conditions: Prenatal developmental toxicity study; wistar; Oral; Feed; dose end: 15 GD; group: maternal; systemic / in life observation / body weight / body weight gain + systemic / in life observation / food consumption / food consumption
mouse [2] = conditions: Chronic toxicity; b6c3f1; Oral; Feed; dose end: 2 year; group: systemic; systemic / clinical chemistry / alkaline phosphatase (alp/alk) / alkaline phosphatase (alp/alk) + systemic / organ weight / liver / absolute…
rat [3] = conditions: Multigenerational reproductive toxicity study, fischer, Oral, Feed, dose end: 1 generation
rat [4] = conditions: Chronic toxicity, fischer, Oral, Feed, dose end: 1 year, group: systemic
dog [5] = conditions: Chronic toxicity, beagle, Oral, Capsule, dose end: 52 week, group: systemic
dog [6] = conditions: Subchronic oral toxicity in nonrodent, beagle, Capsule, dose end: 90 day, group: systemic
rat [7] = conditions: Combined chronic toxicity/carcinogenicity, fischer, Oral, Feed, dose end: 2 year, group: systemic
mouse [8] = conditions: Subchronic oral toxicity in rodents, B6C3F1, Feed, dose end: 3 month, group: systemic
mouse [9] = conditions: Carcinogenicity, Charles River, Oral, Feed, dose end: 104 week, group: systemic
dog [10] = conditions: Chronic toxicity; beagle; Oral; Feed; dose end: 52 week; group: systemic; systemic / organ weight / liver / relative to body weight + systemic / hematology / platelet / platelet + systemic / organ weight / kidney…
rat [11] = conditions: Prenatal developmental toxicity study, sprague dawley, Oral, Gavage/Intubation, dose end: 15 GD
rat [12] = conditions: Combined chronic toxicity/carcinogenicity, sprague dawley, Oral, Feed, dose end: 104 week, group: systemic
rat [13] = conditions: Subchronic oral toxicity in rodents, sprague dawley, Feed, dose end: 13 week, group: systemic, systemic / pathology gross / kidney / discolored + systemic / in life observation / body weight / body weight + systemic / in life …
dog [14] = conditions: Chronic toxicity, beagle, Oral, Feed, dose end: 52 week, group: systemic
rat [15] = conditions: Prenatal developmental toxicity study, wistar, Oral, Gavage/Intubation, dose end: 16 GD
dog [16] = conditions: Subchronic oral toxicity in nonrodent, beagle, Feed, dose end: 13 week, group: systemic, systemic / clinical chemistry / albumin-globulin ratio / albumin-globulin ratio + systemic / clinical chemistry / aspartate aminotransferase…
mouse [17] = conditions: Subchronic oral toxicity in rodents, cd1, Feed, dose end: 13 week, group: systemic, systemic / pathology microscopic / liver / lipid deposition
[18] = group: offspring, systemic / in life observation / clinical signs / urogenital staining + systemic / urinalysis / appearance and color / appearance and color
[19] = group: parental, systemic / organ weight / liver / absolute + systemic / organ weight / liver / relative to body weight + systemic / in life observation / …
[20] = systemic / organ weight / adrenal gland / absolute + systemic / organ weight / adrenal gland / relative to body weight + systemic / organ …
[21] = systemic / hematology / [other] / [other] + systemic / hematology / jolly bodies / jolly bodies + systemic / hematology / macrocytosis / …
[22] = systemic / hematology / polychromasia / polychromasia + systemic / hematology / lymphocyte / lymphocyte + systemic / in life observation / …
[23] = systemic / in life observation / clinical signs / urine, discoloration + systemic / clinical chemistry / glucose / glucose
[24] = systemic / pathology microscopic / mammary gland / fibroadenoma + systemic / clinical chemistry / urea nitrogen / urea nitrogen + systemic…
[25] = systemic / in life observation / body weight / body weight + systemic / in life observation / body weight / body weight gain
[26] = systemic / in life observation / body weight / body weight gain + systemic / pathology microscopic / lung / carcinoma + systemic / in life …
[27] = group: developmental, developmental / developmental malformation / kidney / small renal papilla
[28] = group: developmental, developmental / developmental malformation / kidney / small renal papilla + developmental / developmental malformation / spinal cord / …
[29] = group: maternal, systemic / in life observation / food consumption / food consumption + systemic / pathology gross / spleen / discolored
[30] = group: maternal, systemic / in life observation / food consumption / food consumption + systemic / pathology gross / spleen / discolored + reproductive / …
[31] = systemic / in life observation / body weight / body weight + systemic / in life observation / body weight / body weight gain + systemic / in…
[32] = systemic / hematology / [other] / [other] + systemic / hematology / erythroblast / erythroblast + systemic / hematology / monocytes / …
[33] = systemic / hematology / erythroblast / erythroblast
[34] = group: developmental, developmental / developmental malformation / kidney / dilated renal pelvis + developmental / developmental malformation / ureter / distended
[35] = group: maternal, systemic / in life observation / clinical signs / salivation

Which LEL (rat [1]) does the source give for `CC(C)(C)c1ccc(O)cc1` [4-tert-Butylphenol] here?
Its LEL is 3590 mg/kg/day.

What about the LOAEL (rat [1]) of the same compound?
The LOAEL was 3590 mg/kg/day.

Which LEL (mouse [2]) does the source give for `C=C(C)CN(CC)c1c([N+](=O)[O-])cc(C(F)(F)F)cc1[N+](=O)[O-]` [Ethalfluralin] here?
Its LEL is 47 mg/kg/day.

And the LOAEL (mouse [2])?
The LOAEL was 47 mg/kg/day.

What about the NEL (mouse [2]) of the same compound?
Its NEL is 11.6 mg/kg/day.

What about the NOAEL (mouse [2]) of the same compound?
The NOAEL was 11.6 mg/kg/day.

What about the LEL (rat [3]; [18]) of the same compound?
Its LEL is 20 mg/kg/day.

And the LOAEL (rat [3]; [18])?
Its LOAEL is greater than 61 mg/kg/day.

And the NEL (rat [3]; [18])?
Its NEL is 8 mg/kg/day.

And the NOAEL (rat [3]; [18])?
The NOAEL was no less than 61 mg/kg/day.

And the LOAEL (rat [3]; group: parental, systemic / organ weight / liver / absolute + systemic / organ weight / liver / relative to body weight)?
Its LOAEL is 61 mg/kg/day.

What about the NEL (rat [3]; [19]) of the same compound?
Its NEL is 8 mg/kg/day.

And the NOAEL (rat [3]; [19])?
The NOAEL was 20 mg/kg/day.

What about the LEL (rat [3]; group: parental, systemic / organ weight / liver / relative to body weight + systemic / in life observation / clinical signs / urogenital staining + systemic…) of the same compound?
The LEL was 20 mg/kg/day.

What about the LOAEL (rat [4]; systemic / in life observation / body weight / body weight gain + systemic / organ weight / liver / relative to body weight) of the same compound?
Its LOAEL is 37.5 mg/kg/day.

And the NOAEL (rat [4]; systemic / in life observation / body weight / body weight gain + systemic / organ weight / liver / relative to body weight + systemic / …)?
The NOAEL was 12.5 mg/kg/day.

And the LEL (rat [4]; [20])?
The LEL was 5 mg/kg/day.

And the NEL (rat [4]; [20])?
Its NEL is less than 5 mg/kg/day.

What about the LOAEL (dog [5]; [21]) of the same compound?
The LOAEL was 20 mg/kg/day.

What about the NOAEL (dog [5]; [21]) of the same compound?
Its NOAEL is 4 mg/kg/day.

What about the LEL (dog [5]; [22]) of the same compound?
The LEL was 4 mg/kg/day.

And the NEL (dog [5]; [22])?
The NEL was less than 4 mg/kg/day.

What about the LOAEL (dog [6]; systemic / in life observation / clinical signs / anorexia + systemic / in life observation / clinical signs / vomitting) of the same compound?
Its LOAEL is 125 mg/kg/day.

And the LEL (dog [6]; systemic / in life observation / clinical signs / anorexia + systemic / in life observation / clinical signs / vomitting + systemic / in …)?
Its LEL is 125 mg/kg/day.

And the LEL (rat [7]; [23])?
Its LEL is 5 mg/kg/day.

What about the NEL (rat [7]; [23]) of the same compound?
Its NEL is less than 5 mg/kg/day.

And the LOAEL (rat [7]; [24])?
Its LOAEL is greater than 37.5 mg/kg/day.

And the NOAEL (rat [7]; [24])?
Its NOAEL is no less than 37.5 mg/kg/day.

And the LEL (mouse [8]; systemic / clinical chemistry / bilirubin / total bilirubin + systemic / organ weight / kidney / absolute)?
Its LEL is 136 mg/kg/day.

And the NOAEL (mouse [8]; systemic / in life observation / body weight / body weight + systemic / clinical chemistry / alanine aminotransferase (alt/sgpt) / alanine …)?
The NOAEL was 285 mg/kg/day.

What about the LOAEL (mouse [8]; [25]) of the same compound?
The LOAEL was 538 mg/kg/day.

And the NEL (mouse [8]; systemic / in life observation / body weight / body weight gain + systemic / clinical chemistry / bilirubin / total bilirubin + systemic / …)?
Its NEL is 68 mg/kg/day.

For `CN(C)C(=O)Nc1cccc(C(F)(F)F)c1` [Fluometuron], which LOAEL (mouse [9]; systemic / in life observation / body weight / body weight gain) is on record?
The LOAEL was 260 mg/kg/day.

And the NEL (mouse [9]; [26])?
Its NEL is 1.2 mg/kg/day.

What about the NOAEL (mouse [9]; [26]) of the same compound?
The NOAEL was 61.5 mg/kg/day.

What about the LEL (mouse [9]; systemic / pathology microscopic / lung / carcinoma + systemic / in life observation / clinical signs / [other]) of the same compound?
Its LEL is 61.5 mg/kg/day.

What about the NEL (dog [10]) of the same compound?
Its NEL is 237 mg/kg/day.

And the NOAEL (dog [10])?
The NOAEL was 237 mg/kg/day.

What about the LEL (rat [11]; [27]) of the same compound?
Its LEL is 100 mg/kg/day.

What about the LOAEL (rat [11]; [27]) of the same compound?
The LOAEL was 100 mg/kg/day.

And the NEL (rat [11]; [28])?
Its NEL is 10 mg/kg/day.

And the NOAEL (rat [11]; [28])?
Its NOAEL is 10 mg/kg/day.

And the LEL (rat [11]; [29])?
The LEL was 100 mg/kg/day.

And the LOAEL (rat [11]; [29])?
The LOAEL was 100 mg/kg/day.

What about the NEL (rat [11]; [30]) of the same compound?
Its NEL is 10 mg/kg/day.

What about the NOAEL (rat [11]; [30]) of the same compound?
The NOAEL was 10 mg/kg/day.

How did the LOAEL (rat [12]; [25]) turn out when `COC(=O)c1ccc(I)cc1S(=O)(=O)[N-]C(=O)Nc1nc(C)nc(OC)n1.[Na+]` [Iodosulfuron-methyl-sodium] was run?
Its LOAEL is 331 mg/kg/day.

What about the LEL (rat [12]; [31]) of the same compound?
The LEL was 29.7 mg/kg/day.

And the NEL (rat [12]; [31])?
The NEL was 2.96 mg/kg/day.

And the NOAEL (rat [12]; [31])?
The NOAEL was 29.7 mg/kg/day.

What about the LEL (rat [13]) of the same compound?
Its LEL is 347 mg/kg/day.

And the LOAEL (rat [13])?
The LOAEL was 347 mg/kg/day.

And the LOAEL (dog [14]; [32])?
The LOAEL was 43.7 mg/kg/day.

And the NOAEL (dog [14]; [32])?
Its NOAEL is 7.25 mg/kg/day.

And the LEL (dog [14]; [33])?
The LEL was 41.8 mg/kg/day.

And the NEL (dog [14]; [33])?
The NEL was 7.37 mg/kg/day.

And the LEL (rat [15]; [34])?
Its LEL is 100 mg/kg/day.

And the LOAEL (rat [15]; [34])?
Its LOAEL is 100 mg/kg/day.

And the NEL (rat [15]; [34])?
The NEL was less than 100 mg/kg/day.

And the NOAEL (rat [15]; [34])?
Its NOAEL is less than 100 mg/kg/day.

And the LEL (rat [15]; [35])?
The LEL was 1000 mg/kg/day.

And the LOAEL (rat [15]; [35])?
Its LOAEL is 1000 mg/kg/day.

And the NEL (rat [15]; [35])?
The NEL was 315 mg/kg/day.

What about the NOAEL (rat [15]; [35]) of the same compound?
The NOAEL was 315 mg/kg/day.

What about the LEL (dog [16]) of the same compound?
Its LEL is 49 mg/kg/day.

What about the LOAEL (dog [16]) of the same compound?
The LOAEL was 49 mg/kg/day.

What about the NEL (dog [16]) of the same compound?
Its NEL is 8.1 mg/kg/day.

And the NOAEL (dog [16])?
Its NOAEL is 8.1 mg/kg/day.

And the LEL (mouse [17])?
Its LEL is 139 mg/kg/day.

What about the LOAEL (mouse [17]) of the same compound?
The LOAEL was 139 mg/kg/day.

And the NEL (mouse [17])?
Its NEL is less than 139 mg/kg/day.

And the NOAEL (mouse [17])?
The NOAEL was less than 139 mg/kg/day.

Reference: EPA's ToxRefDB 2
